# Reference: patent publication US20220160664A1, “TAZ ACTIVATORS AND WNT AGONISTS FOR TREATING EAR DISORDERS” (Frequency Therapeutics, Inc., priority 2019, published 2022)
# Key:
# [1] = cited from earlier work; for Human In Vivo Conc: Table 8
# [2] = biological target: T1, KDM1b (Homo sapiens, UniProt Q8NB78); conditions: Table 9; read-out: Select KDM1b; cited from earlier work
# T1 sequence (Q8NB78 1-822): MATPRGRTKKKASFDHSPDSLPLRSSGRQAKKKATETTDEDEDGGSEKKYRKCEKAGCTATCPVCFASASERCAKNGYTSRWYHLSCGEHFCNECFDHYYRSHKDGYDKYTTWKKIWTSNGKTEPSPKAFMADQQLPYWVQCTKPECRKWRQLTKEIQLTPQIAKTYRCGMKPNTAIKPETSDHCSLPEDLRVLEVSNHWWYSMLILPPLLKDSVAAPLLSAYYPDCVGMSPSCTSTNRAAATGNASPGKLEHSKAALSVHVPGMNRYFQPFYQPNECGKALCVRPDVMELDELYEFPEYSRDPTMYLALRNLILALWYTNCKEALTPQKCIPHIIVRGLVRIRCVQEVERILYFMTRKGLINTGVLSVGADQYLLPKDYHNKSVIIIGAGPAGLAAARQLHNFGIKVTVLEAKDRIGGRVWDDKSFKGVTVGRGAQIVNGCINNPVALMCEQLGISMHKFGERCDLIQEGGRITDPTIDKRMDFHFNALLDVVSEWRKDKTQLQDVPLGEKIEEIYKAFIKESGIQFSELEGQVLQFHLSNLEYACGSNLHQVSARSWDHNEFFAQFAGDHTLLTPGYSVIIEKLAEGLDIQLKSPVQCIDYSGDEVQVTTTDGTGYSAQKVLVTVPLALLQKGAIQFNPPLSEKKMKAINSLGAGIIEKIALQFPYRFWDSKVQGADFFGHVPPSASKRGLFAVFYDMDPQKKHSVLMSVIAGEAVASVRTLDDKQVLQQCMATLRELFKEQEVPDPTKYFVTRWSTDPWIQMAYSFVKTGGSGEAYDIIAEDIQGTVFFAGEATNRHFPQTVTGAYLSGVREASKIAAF
# [3] = test system: Lgr5 GFP(+) cochlear progenitor cells; assay: Lgr5+ Assay / Stem Cell Proliferation Assay: proliferation and enrichment of Lgr5 GFP(+) cochlear progenitor cells; type: cell-based
# From the text: FIG. 1A is a graph depicting that the TAZ activator IBS008738 enhances Lgr5 GFP(+) progenitor cell proliferation when combined with CHIR in a background of growth factors. The y-axis depicts Lgr5 GFP(+) cell count and the x-axis depicts control conditions (background growth factors plus CHIR (EFI-C) or CHIR and VPA (EFI-CV)) versus CHIR+IBS008738 (EFI-C-IBS).
# The y-axis depicts Lgr5 GFP(+) cell area and the x-axis depicts concentration of FHZ-000706.
# FIG. 4A is a graph depicting that the TAZ activator FHZ-000706 enhances Lgr5 GFP(+) progenitor cell proliferation when combined with CHIR in a background of growth factors compared to CHIR alone.
# The TAZ activator and the Wnt agonist (optionally in combination with an epigenetic agent) is capable of (i) forming a proliferation assay final cell population from a proliferation assay initial cell population over a proliferation assay time period in a stem cell proliferation assay, and/or (ii) forming a differentiation assay final cell population from a differentiation assay initial cell population over a differentiation assay time period in a Stem Cell differentiation assay wherein: (a) the proliferation assay initial cell population has (i) a Proliferation assay initial number of total cells, (ii) a proliferation assay initial number of Lgr5+ cells, (iii) a proliferation assay initial number of hair cells, (iv) a proliferation assay initial Lgr5+ cell fraction that equals the ratio of the proliferation assay initial number of Lgr5+ cells to the proliferation assay initial number of total cells, and (v) a proliferation assay initial hair cell fraction that equals the ratio of the proliferation assay initial number of hair cells to the proliferation assay initial number of total cells; (b) the proliferation assay final cell population has (i) a proliferation assay final number of total cells, (ii) a proliferation assay final number of Lgr5+ cells, (iii) a proliferation assay final number of hair cells, (iv) a proliferation assay final Lgr5+ cell fraction that equals the ratio of the proliferation assay final number of Lgr5+ cells to the proliferation assay final number of total cells and (v) a proliferation assay final hair cell fraction that equals the ratio of the proliferation assay final number of hair cells to the proliferation assay final number of total cells; (c) the differentiation assay initial cell population has (i) a differentiation assay initial number of total cells, (ii) a differentiation assay initial number of Lgr5+ cells, (iii) a differentiation assay initial number of hair cells, (iv) a differentiation assay initial Lgr5+ cell fraction that equals the ratio of the differentiation assay initial number of Lgr5+ cells to the differentiation assay initial number of total cells, and (v) a differentiation assay initial hair cell fraction that equals the ratio of the differentiation assay initial number of hair cells to the differentiation assay initial number of total cells; (d) the differentiation assay final cell population has (i) a differentiation assay final number of total cells, (ii) a differentiation assay final number of Lgr5+ cells, (iii) a differentiation assay final number of hair cells, (iv) a differentiation assay final Lgr5+ cell fraction that equals the ratio of the differentiation assay final number of Lgr5+ cells to the differentiation assay final number of total cells, and (v) a differentiation assay final hair cell fraction that equals the ratio of the differentiation assay final number of hair cells to the differentiation assay final number of total cells; (e) the proliferation assay final number of Lgr5+ cells exceeds the proliferation assay initial number of Lgr5+ cells by a factor of at least 10; and/or (f) the differentiation assay final number of hair cells is a non-zero number.
# [4] = test system: cochlear progenitor cells (Lgr5+); assay: Lgr5 cell expansion: quantification of cell proliferation, expansion and enrichment (flow cytometry / Celigo imaging); type: cell-based, mice; conditions: for enrichment of Lgr5+ progenitor cells / proliferation of Lgr5+ progenitor cells: TAZ activator 10 μM combined with Wnt agonist CHIR99021 (4 μM)
# Experimental: Neonatal Lgr5-EGFP-IRES-Cre-ER mice (The Jackson Laboratory, strain 8875) were used to analyze the effects of small molecules on cochlear stem cell expansion (see Barker et al., Nature 449, 1003-7 (2007). This strain allowed for visualization and quantification of EGFP cells.
# All animal studies were conducted under an approved institutional protocol per National Institutes of Health guidelines. Using neonatal animals, cochleae were dissected and the organ of Corti (sensory epithelium) was separated from the stria vascularis (ion transport epithelium) and the modiolus (nerve tissue). Epithelia were then collected and treated with TrypLE for 15-20 minutes to obtain single cells. The cells were then filtered ([…]) and suspended in a Matrigel (Corning) dome for 3D culture seeded at 0.5 cochlea per well.
# Expansion of Lgr5 Cells: Cells were cultured in a 3D system and bathed in a serum free 1:1 mixture of DMEM and F12, supplemented with Glutamax (GIBCO), N2, B27 (Invitrogen), EGF (50 ng/mL; Chemicon), bFGF (50 ng/mL; Chemicon), IGF-1 (50 ng/mL; Chemicon), and small molecules for seven days. Media was changed every other day. Treatments were run in triplicate or quadruplicate.
# Quantification of Cell Proliferation: Lgr5 cells were quantified after 7-10 days. Cell colonies were dissociated into single cells using TrypLE. The cells were then stained with propidium iodide (PI) and analyzed using a flow cytometer to count Lgr5-EGFP cells. The percentage of viable Lgr5 cells was plotted against the concentration in GraphPad Prism.
# Organ of Corti are dissected from Lgr5 GFP(+) mice and dissociated as single cells as described above. Background media contains the same supplements and growth factors at the same concentrations as described above. Assays for image quantification are run in 96 well black plates with clear bottom with cells embedded in 50% Matrigel at cell density of 500 k cells/mL with 50 uL applied to each well. Cells are cultured for 7 days, with media change every 3-4 days. After 7 days of exposure to experimental conditions (e.g. small molecules), media is then removed from culture and replaced with media containing Hoescht at a 1:2000 dilution for a final concentration of 5 ug/mL (200 uL/well). The plate is then placed in a cell culture incubator at 37C for 1 hr. The media containing Hoescht is then removed and 200 uL/well of Cell Recovery Solution is added. The plate is then incubated on a plastic-wrapped (e.g. Saran wrap) CoolRack™ on ice for 80 minutes. Next, the plate is centrifuged for 5 minutes at 2300 RPMs (Beckman Coulter Allegra 6R centrifuge; GH 3.8A plate rotor; ambient temperature). Cells are then imaged on Celigo using 3 channels for brightfield, blue (Hoescht), and green (Lgr5 GFP). Proliferated cell colonies are captured as summed objects in the blue channel and the green channel. The green Lgr5 GFP(+) cell colonies are quantified for total GFP(+) cell area, while the blue hoescht stained colonies are quantified as total cell area. The % GFP(+) Cell Area is calculated using the total GFP(+) cell area divided by the total cell area multiplied by 100. All results are compiled and utilized to determine the effects of experimental conditions (e.g. small molecules) on the expansion and enrichment of the Lgr5 cell population.
# [5] = biological target: DOT1L (Homo sapiens, UniProt Q8TEK3); conditions: DOT1L inhibitors, Table 8; cited from earlier work
# Sequence of DOT1L (Q8TEK3 whole entry, species assumed): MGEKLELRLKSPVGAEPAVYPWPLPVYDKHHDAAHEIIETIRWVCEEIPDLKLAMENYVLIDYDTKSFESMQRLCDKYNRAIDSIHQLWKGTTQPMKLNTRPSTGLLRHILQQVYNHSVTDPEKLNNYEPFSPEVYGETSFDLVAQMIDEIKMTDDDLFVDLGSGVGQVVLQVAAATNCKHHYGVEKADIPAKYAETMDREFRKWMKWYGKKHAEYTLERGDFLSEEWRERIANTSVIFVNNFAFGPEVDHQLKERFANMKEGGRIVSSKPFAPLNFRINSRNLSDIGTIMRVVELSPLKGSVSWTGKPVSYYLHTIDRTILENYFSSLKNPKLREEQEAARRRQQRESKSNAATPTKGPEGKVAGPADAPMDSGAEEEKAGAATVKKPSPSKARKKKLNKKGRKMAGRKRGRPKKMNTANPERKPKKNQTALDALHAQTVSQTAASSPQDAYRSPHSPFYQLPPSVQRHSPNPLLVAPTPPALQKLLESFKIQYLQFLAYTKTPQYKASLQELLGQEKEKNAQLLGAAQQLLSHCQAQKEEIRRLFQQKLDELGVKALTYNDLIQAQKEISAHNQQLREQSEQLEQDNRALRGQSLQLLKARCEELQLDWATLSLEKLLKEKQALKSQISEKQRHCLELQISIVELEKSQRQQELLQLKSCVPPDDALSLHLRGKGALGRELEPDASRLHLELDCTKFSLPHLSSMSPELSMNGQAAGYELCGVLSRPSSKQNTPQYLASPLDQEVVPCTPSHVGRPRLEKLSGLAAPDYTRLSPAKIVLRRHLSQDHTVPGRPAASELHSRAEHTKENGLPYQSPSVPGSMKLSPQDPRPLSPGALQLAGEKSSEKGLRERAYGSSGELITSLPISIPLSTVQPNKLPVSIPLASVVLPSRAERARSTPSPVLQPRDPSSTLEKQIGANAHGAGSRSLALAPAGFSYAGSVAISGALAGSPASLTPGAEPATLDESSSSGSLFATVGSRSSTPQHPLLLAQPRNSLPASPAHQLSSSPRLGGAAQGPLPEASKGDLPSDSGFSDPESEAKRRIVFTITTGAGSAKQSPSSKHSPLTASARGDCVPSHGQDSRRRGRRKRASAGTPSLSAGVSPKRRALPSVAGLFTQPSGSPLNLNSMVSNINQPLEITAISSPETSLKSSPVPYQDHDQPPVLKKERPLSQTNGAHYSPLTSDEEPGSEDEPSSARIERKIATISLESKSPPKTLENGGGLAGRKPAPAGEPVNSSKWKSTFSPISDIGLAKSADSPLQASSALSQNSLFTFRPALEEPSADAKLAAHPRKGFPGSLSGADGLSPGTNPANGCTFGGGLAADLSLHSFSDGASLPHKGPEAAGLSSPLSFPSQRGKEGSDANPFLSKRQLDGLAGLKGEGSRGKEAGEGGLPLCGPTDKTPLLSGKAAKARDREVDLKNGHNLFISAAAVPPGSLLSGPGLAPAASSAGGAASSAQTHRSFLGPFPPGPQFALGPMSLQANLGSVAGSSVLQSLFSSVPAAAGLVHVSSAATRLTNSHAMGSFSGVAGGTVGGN
# [6] = biological target: GSK-3 alpha (Homo sapiens, UniProt P49840); conditions: Table 2; kind of potency not given; cited from earlier work
# Sequence of GSK-3 alpha (P49840 whole entry): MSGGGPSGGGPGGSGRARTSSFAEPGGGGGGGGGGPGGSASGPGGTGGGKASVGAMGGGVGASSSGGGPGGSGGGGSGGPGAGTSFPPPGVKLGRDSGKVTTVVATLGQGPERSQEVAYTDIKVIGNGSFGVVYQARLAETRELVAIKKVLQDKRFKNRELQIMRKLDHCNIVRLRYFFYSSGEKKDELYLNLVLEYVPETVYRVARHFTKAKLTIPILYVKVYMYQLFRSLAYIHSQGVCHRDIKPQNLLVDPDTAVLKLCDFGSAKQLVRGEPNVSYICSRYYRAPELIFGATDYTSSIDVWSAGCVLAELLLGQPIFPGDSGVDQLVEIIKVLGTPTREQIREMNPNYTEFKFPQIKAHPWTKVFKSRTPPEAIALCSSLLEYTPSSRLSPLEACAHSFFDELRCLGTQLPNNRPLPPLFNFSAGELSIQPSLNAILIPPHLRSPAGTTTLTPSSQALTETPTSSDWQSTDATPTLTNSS
# [7] = biological target: TAZ (Homo sapiens, UniProt Q9GZV5); conditions: Table 1, TAZ activators, literature cell concentration; cited from earlier work
# Sequence of TAZ (Q9GZV5 whole entry): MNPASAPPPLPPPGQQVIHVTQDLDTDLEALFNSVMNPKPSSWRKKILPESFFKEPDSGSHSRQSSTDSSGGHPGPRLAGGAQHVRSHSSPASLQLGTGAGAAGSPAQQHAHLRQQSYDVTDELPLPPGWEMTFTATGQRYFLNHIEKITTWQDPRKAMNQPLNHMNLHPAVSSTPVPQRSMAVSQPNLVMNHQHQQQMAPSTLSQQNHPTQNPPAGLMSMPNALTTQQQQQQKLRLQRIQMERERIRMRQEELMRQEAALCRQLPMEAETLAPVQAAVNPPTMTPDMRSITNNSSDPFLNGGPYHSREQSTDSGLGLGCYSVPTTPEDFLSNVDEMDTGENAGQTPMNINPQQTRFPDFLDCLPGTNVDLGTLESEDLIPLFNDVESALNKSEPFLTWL
# [8] = test system: HDAC; conditions: cited from earlier work
# [9] = 0-30 μM FHZ-000706 in a background of growth factors
# [10] = 10 μM FHZ-000706 + 4 μM CHIR99021 in growth factors compared to CHIR alone
# [11] = Table 1, TAZ activators, concentration range in the assay
# [12] = TAZ activator alone, FIG. 3A, 3B
# [13] = 10 μM IBS008738 combined with 4 μM CHIR99021 and 1 mM VPA in growth factors versus EFI-C or EFI-CV controls
smiles,measurement,setting,value
CC(C)N(CCCNC(=O)Nc1ccc(C(C)(C)C)cc1)C[C@H]1O[C@@H](n2ccc3c(N)ncnc32)[C@H](O)[C@@H]1O [EPZ004777],Human In Vivo Conc,[1],0.1 to 45 µM
O=C(O)c1ccc(CN2CCC(CN[C@@H]3C[C@H]3c3ccccc3)CC2)cc1 [GSK-2879552],IC50,[2],20 µM
"CCCc1cc(C)[nH]c(=O)c1CNC(=O)c1cc(-c2ccc(N3CCN(C(C)C)CC3)nc2)cc2c1cnn2C(C)C [UN C1999, reference compound]",Lgr5+ Assay,"[3]; Table 7, result in words",Active
Cc1ccc(-n2cnc(N)c2C(=O)c2ccccc2)cc1 [FHZ-000706],"Lgr5 GFP(+) cell area (enrichment), FIG. 3B",[3]; [9],does not enrich
same,"Lgr5 GFP(+) cell area (proliferation), FIG. 3A",[3]; [9],does not proliferate
same,"Lgr5 GFP(+) cell area (proliferation), FIG. 4A",[3]; [10],enhances
same,"Lgr5 GFP(+) cell area percentage (enrichment), FIG. 4B",[3]; [10],enhances
same,Lgr5+ Assay,[3]; [11],1 to 100 µM
same,enrichment of Lgr5+ progenitor cells,[4],enriched
same,proliferation of Lgr5+ progenitor cells,[4],proliferate
same,enrichment of cochlear progenitor cells,[4]; [12],does not promote
same,proliferation of cochlear progenitor cells,[4]; [12],does not promote
CC(C)N(CCCNC(=O)Nc1ccc(C(C)(C)C)cc1)C[C@H]1O[C@@H](n2cc(Br)c3c(N)ncnc32)[C@H](O)[C@@H]1O [SGC0946],Lgr5+ Assay,"[3]; concentration range, Table 8",0.6 to 5 µM
same,Human In Vivo Conc,[1],0.1-5 μM uM
same,Lit Cell,[5],10 mM
N#Cc1ccc2[nH]c(O)c(-c3ccc(CN4CCOCC4)cn3)c2c1 [AZD 1080],IC50,[6],0.0069 µM
"C=CCNc1nc(N)c(C(=O)c2ccc(Cl)s2)s1 [IBS008738, reference compound]","Lgr5 GFP(+) cell count (progenitor cell proliferation), FIG. 1A","[3]; 10 μM IBS008738 + 4 μM CHIR99021 in growth factors (50 ng/mL EGF, bFGF, IGR1) versus EFI-C or EFI-CV controls",enhances
same,"Lgr5 GFP(+) cell proliferation percentage (enrichment), FIG. 1B",[3]; 10 μM IBS008738 + 4 μM CHIR99021 in growth factors versus EFI-C or EFI-CV controls,enhances
same,"Lgr5 GFP(+) cell count (progenitor cell proliferation), FIG. 2A",[3]; [13],does not enhance
same,"Lgr5 GFP(+) cell proliferation percentage (enrichment), FIG. 2B",[3]; [13],enhances
same,Lgr5+ Assay,[3]; [11],1.1 to 30 µM
same,enrichment of Lgr5+ progenitor cells,[4],enriched
same,proliferation of Lgr5+ progenitor cells,[4],proliferate
N[C@@H]1C[C@H]1c1ccccc1 [TCP],Cmax,"[1]; Table 9, in brackets under the ng/mL range, read-out: Human Plasma Conc.: Cmax",225 to 1500 nM
same,Human Plasma Conc.: Cmax,[1]; Table 9,30-200 ng/ml ng/mL
C=CCNc1nc(N)c(C(=O)c2ccc(F)s2)s1 [TT10],Lit Cell,[7],1 µM
"O=C1NC(=O)C(c2cnc3ccccn23)=C1c1cn2c3c(cc(F)cc13)CN(C(=O)N1CCCCC1)CC2 [LY2090314, 3-(9-fluoro-2-(piperidine-1-carbonyl)-1,2,3,4-tetrahydro-[1,4]diazepino[6,7,1-hi]indol-7-yl)-4-(imidazo[1,2-a]pyridin-3-yl)-1H-pyrrole-2,5-dione]",IC50,[6],0.0021 µM
"CS(=O)(=O)c1ccc(-c2cnc(NCc3ccco3)n3cnnc23)cc1 [EED226, reference compound]",Lgr5+ Assay,"[3]; Table 7, result in words",Active
CC(C)N(C[C@H]1O[C@@H](n2cnc3c(N)ncnc32)[C@H](O)[C@@H]1O)[C@H]1C[C@@H](CCc2nc3cc(C(C)(C)C)ccc3[nH]2)C1 [pinometostat],Human In Vivo Conc: Total plasma Css,"[1]; Table 8, in brackets under the ng/mL range",(1.42-2.94 uM)
same,Human In Vivo Conc,[1],(1-10 uM)
CCCCc1nc2cc(-c3cccnc3)c(C)nc2n1Cc1ccc(-c2ccccc2-c2nn[nH]n2)cc1 [TM-25659],Lit Cell,[7],10 to 100 µM
O=C([O-])CCCc1ccccc1.[Na+] [Na phenylbutyrate],Class selectivity,"[8]; Table 5, HDAC class",Class I >
same,IC50,"[8]; Table 5, HDAC Inhib 1, 2, 3, 8, kind of potency not given, read-out: HDAC Potene",9 to 16 µM
c1ccc([C@@H]2C[C@H]2NC2CCNCC2)cc1 [GSK-LSD1],Lgr5+ Assay,"[3]; Table 9, with <= the upper end of a range printed over two lines",≤ 50 µM
